Experimental data taken from US20230348444A1, “NOVEL COMPOUNDS FOR USE IN THE TREATMENT OF DISEASES ASSOCIATED WITH ANGIOTENSIN II” (Vicore Pharma AB, priority 2020, published 2023).
Where two headings read alike, the source gives them in different places.

Assays:
CYP1A = molecular target: T1, CYP1A (Homo sapiens, UniProt P05177); test: CYP inhibition in human liver microsomes (Eurofins protocol ITEMG232); assay type: in vitro ADME; conditions: substrate phenacetin; for CYP1A Inh %: 10 μM; for inhibition at 10 µM: probe phenacetin, read-out: CYP1A Inh %
T1 construct: using isoform-specific substrates incubated with human liver microsomes; tissue Eurofins ITEMG232; host or cells: human liver microsomes
T1 sequence (P05177 2-516 limits assumed): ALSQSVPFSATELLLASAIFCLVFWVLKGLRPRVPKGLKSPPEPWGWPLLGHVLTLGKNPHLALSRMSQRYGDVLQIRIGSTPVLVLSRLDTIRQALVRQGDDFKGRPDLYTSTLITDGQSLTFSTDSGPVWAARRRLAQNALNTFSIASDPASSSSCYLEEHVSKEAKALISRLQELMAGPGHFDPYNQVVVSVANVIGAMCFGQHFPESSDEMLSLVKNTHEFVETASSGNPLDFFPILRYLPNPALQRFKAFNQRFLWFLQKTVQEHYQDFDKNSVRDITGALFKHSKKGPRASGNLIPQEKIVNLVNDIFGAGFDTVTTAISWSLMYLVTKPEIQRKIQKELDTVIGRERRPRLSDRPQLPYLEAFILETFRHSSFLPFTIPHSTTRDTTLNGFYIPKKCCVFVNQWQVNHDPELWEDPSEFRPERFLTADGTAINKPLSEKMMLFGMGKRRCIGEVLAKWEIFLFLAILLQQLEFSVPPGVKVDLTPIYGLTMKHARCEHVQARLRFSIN
Protocol: (§1) The following substrates were used; CYP1A phenacetin, CYP2B6 bupropion, CYP2C8 paclitaxel and amodiaquine, CYP2C9 diclofenac, CYP2C19 omeprazole, CYP2D6 dextromethorphan, CYP3A midazolam and testosterone.
(§2) At the end of the incubation, the formation of metabolite was monitored by HPLC-MS/MS as the peak area response.

CYP2C9 = CYP2C9 (Homo sapiens, UniProt P11712); test: as above; assay type: in vitro ADME; parameters: using isoform-specific substrates incubated with human liver microsomes; tissue Eurofins ITEMG232; host or cells: human liver microsomes; conditions: substrate diclofenac; for CYP2C9 Inh %: 10 μM; for inhibition at 10 µM: probe diclofenac, read-out: CYP2C9 Inh %
Chain of CYP2C9 (P11712 whole entry, canonical isoform): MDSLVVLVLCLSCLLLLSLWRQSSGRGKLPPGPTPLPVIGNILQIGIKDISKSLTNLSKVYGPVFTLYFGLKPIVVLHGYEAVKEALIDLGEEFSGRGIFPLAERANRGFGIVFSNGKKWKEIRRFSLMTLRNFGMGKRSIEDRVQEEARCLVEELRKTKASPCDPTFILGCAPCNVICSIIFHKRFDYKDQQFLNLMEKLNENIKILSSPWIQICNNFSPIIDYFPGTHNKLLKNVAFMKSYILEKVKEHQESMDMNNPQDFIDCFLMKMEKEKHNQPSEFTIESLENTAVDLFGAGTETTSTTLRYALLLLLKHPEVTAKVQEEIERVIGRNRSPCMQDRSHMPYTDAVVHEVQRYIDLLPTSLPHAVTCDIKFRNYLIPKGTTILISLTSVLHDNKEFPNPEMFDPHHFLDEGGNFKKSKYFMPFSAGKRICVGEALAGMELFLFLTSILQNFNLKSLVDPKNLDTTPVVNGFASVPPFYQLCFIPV
Protocol: as §1, §2

[1] = Metabolic stability in pooled human liver microsomes with or without NADPH; assay type: in vitro ADME; conditions: pooled human liver microsomes 0.5 mg/mL in PBS, 1 uM test compound, 37° C.; for half-life at 1 uM: human, pooled human liver microsomes
[2] = molecular target: T2, human recombinant AT2 receptor (Homo sapiens, UniProt P50052); test: biochemical
T2 sequence (P50052 1-363): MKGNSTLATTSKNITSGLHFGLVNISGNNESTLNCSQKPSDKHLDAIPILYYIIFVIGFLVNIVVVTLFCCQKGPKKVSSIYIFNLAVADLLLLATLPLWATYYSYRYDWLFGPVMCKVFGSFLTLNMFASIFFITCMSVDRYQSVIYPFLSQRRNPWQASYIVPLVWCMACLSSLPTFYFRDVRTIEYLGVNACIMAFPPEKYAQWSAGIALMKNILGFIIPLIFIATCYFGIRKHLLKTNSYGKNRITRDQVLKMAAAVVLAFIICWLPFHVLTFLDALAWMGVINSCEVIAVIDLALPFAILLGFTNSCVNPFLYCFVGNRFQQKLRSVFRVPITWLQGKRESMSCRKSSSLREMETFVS
Protocol: (§3) Compounds were evaluated for binding to the human recombinant AT2 and AT1 receptor according to Eurofins protocol ITEM26 and ITEM24 using a radiometric scintillation assay.

[3] = molecular target: T3, human recombinant AT1 receptor (Homo sapiens, UniProt P30556); test: biochemical
T3 sequence (P30556 1-359): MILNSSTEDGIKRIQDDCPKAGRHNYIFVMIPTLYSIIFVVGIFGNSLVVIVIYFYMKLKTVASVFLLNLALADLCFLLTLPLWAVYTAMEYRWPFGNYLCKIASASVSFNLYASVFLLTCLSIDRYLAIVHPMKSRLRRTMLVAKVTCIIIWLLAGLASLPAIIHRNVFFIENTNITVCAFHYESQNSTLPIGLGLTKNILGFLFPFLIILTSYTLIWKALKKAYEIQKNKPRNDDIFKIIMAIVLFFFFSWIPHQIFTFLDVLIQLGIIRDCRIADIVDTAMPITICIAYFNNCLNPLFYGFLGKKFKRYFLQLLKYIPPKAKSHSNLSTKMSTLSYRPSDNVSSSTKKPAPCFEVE
Protocol: as §3

[4] = with 1 mM NADPH, read-out: T1/2, +NaDPH
[5] = without NADPH, read-out: T1/2, no NaDPH

Row | Compound | CYP1A Inh % (CYP1A) | CYP2C9 Inh % (CYP2C9) | T1/2, +NaDPH ([1]; with 1 mM NADPH) | T1/2, no NaDPH ([1]; without NADPH) | inhibition at 10 µM (CYP1A) | inhibition at 10 µM (CYP2C9) | half-life at 1 uM [1, 4] | half-life at 1 uM [1, 5] | IC50 [2] | IC50 [3]
1 | CCc1nccn1Cc1ccc(-c2cc(CC(C)C)sc2S(=O)(=O)NC(=O)OCc2ccc(F)cc2)cc1F.O=C(O)C(F)(F)F [Example 6, 4-Fluorobenzyl (3-(4((2-ethyl-1H-imidazol-1-yl)methyl)-3-fluorophenyl)-5-isobutylthio-phen-2-yl)sulfonylcarbamate trifluoroacetic acid] | 35% | 72% | 7 min | 50 min |  |  |  |  |  | 
2 | COCCOC(=O)NS(=O)(=O)c1sc(CC(C)C)cc1-c1ccc(Cn2ccnc2C)c(F)c1.O=C(O)C(F)(F)F [Example 3] | −13% | 58% | >60 min | >60 min |  |  |  |  |  | 
3 | Cc1nccn1Cc1ccc(-c2cc(CC(C)C)sc2S(=O)(=O)NC(=O)OCCOC(=O)C(C)(C)C)cc1F [Example 19, 2-((((3-(3-Fluoro-4-((2-methyl-1H-imidazol-1-yl)methyl)phenyl)-5-isobutylthiophen-2-yl)sulfonyl)carbamoyl)oxy)ethyl pivalate] |  |  |  |  | 84.3% | 62.3% | 1 min | 12 min | 4.1 nM | 9000 nM
4 | Cc1nccn1Cc1c(F)cc(-c2cc(CC(C)C)sc2S(=O)(=O)NC(=O)OCCO)cc1F [Example 18, 2-Hydroxyethyl (3-(3,5-difluoro-4-((2-methyl-1H-imidazol-1-yl)methyl)phenv1)-5-isobutylthiophen-2-yl)sulfonylcarbamate] | 15.2% | 77.0% | 4 min | >60 min |  |  |  |  |  | 
5 | CCOC(=O)NS(=O)(=O)c1sc(CC(C)C)cc1-c1ccc(Cn2ccnc2C)c(F)c1.O=C(O)C(F)(F)F [Example 1, Ethyl (3-(3-fluoro-4-((2-methyl-1H-imidazol-1-yl)methyl)phenyl)-5-isobutylthiophen-2-yl)sulfonvicarbamate trifluoroacetic acid] | 37% | 64% | 50 min | 60 min |  |  |  |  |  | 
6 | CCOC(=O)NS(=O)(=O)c1sc(CC(C)C)cc1-c1ccc(Cn2ccnc2CC)c(F)c1.O=C(O)C(F)(F)F [Example 7, Ethyl (3-(4-((2-ethyl-1H-imidazol-1-yl)methyl)-3-fluorophenyl)-5-isobutylthiophen-2-30 yl)sulfonylcarbamate trifluoroacetic acid] | 21% | 64% | 40 min | 40 min |  |  |  |  |  | 
7 | CC(C)Cc1cc(-c2ccc(Cn3ccnc3C(C)(C)C)c(F)c2)c(S(=O)(=O)NC(=O)c2ccccn2)s1 [Example 27, N-((3-(4-((2-(Tert-Butyl)-1H-imidazol-1-yl)methyl)-3-fluorophenyl)-5-isobutylthio-phen-2-yl)sulfonyl)picolinamide] |  |  |  |  | 29% | 58.4% | 4 min | 4 min | 1.82 nM | 2300 nM
8 | CCOC(=O)NS(=O)(=O)c1sc(CC(C)C)cc1-c1ccc(Cn2ccnc2C(C)C)c(F)c1.O=C(O)C(F)(F)F [Example 8, Ethyl (3-(3-fluoro-4-((2-isopropyl-1H-imidazol-1-yl)methyl)phenyl)-5-isobutylthio-phen-2-yl)sulfonylcarbamate trifluoroacetic acid] | −13% | 58% | 46 min | 53 min |  |  |  |  |  | 
